Assay results published in patent US20050192356A1, “Synergistic anti-inflammatory pharmaceutical compositions and methods of use” (priority 2004, published 2005).
Values after ≈ are worked out from the molar mass of the structure shown. Like-named read-outs stand apart in the source and are kept apart here.

System: PGE2 synthesis in AGS cells
Assay: PGE2 synthesis in the AGS human gastric mucosal cell model (A23187)
Format: cell-based
Experimental: Exponentially growing cells were seeded into 6-well plates and grown to confluence. A 20 μL aliquot of the supernatant media was sampled for determination of PGE2 content. Cells were then washed in PBS, scraped and lysed for immunoblotting.

[1] = AGS cells, historical control values, read-out: AGS IC50 for PGE2 synthesis, historical control

Cc1ccc(-c2cc(C(F)(F)F)nn2-c2ccc(S(N)(=O)=O)cc2)cc1 [Celcoxib]
IC50 (AGS, read-out: AGS IC50 for PGE2 synthesis, historical control): 0.024 µg/mL (≈ 0.0629 µM)

CC(=O)Oc1ccccc1C(=O)O [Aspirin]
IC50 [1]: 0.52 µg/mL (≈ 2.89 µM)
IC50 (AGS cells, test material 60 minutes prior to A23187, media removed 30 minutes later, average of three independent assays, read-out: AGS IC50 for PGE2 synthesis): 1.2 µg/mL (≈ 6.66 µM)

CS(=O)(=O)c1ccc(C2=C(c3ccccc3)C(=O)OC2)cc1 [Rofecoxib]
IC50 [1]: 1.8 µg/mL (≈ 5.73 µM)

CC(C)Cc1ccc(C(C)C(=O)O)cc1 (centres unmarked) [Ibuprofen]
IC50 [1]: 0.57 µg/mL (≈ 2.76 µM)
